The text below walks through data of US20220409619A1, “INHIBITORS OF HUMAN IMMUNODEFICIENCY VIRUS REPLICATION” (VIIV HEALTHCARE UK (No. 5) LIMITED, priority 2019, published 2022).

A short description of series [1]: Compound cytotoxicity, XTT-based colorimetric assay. It is filed as cell-based. The following applies: human; uninfected MT2 cells, day 4, XTT-based colorimetric assay. The essentials:
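Run under the antiviral-assay protocol but without virus. Viability was read on day 4 and CC50 values were derived from the readout.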
Background: Formazan colour is commonly taken as a measure of viable cells.

For series [2], the system named is recombinant NL4-3 virus (nef section replaced with Renilla luciferase gene) in MT-2 cells. In words: HIV cell culture assay (antiviral activity, luciferase readout). Type of series: cell-based. The following applies: Renilla, NL43. The essentials: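 MT-2 cells were infected for 4-5 days with 293T-derived NL4-3 Renilla-luciferase reporter virus in the presence of serial compound dilutions. Luciferase was read with EnduRen live-cell substrate. EC50 was fitted with the median effect equation.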

As usually defined, the CC50 is the concentration giving 50% cytotoxicity. A word on the EC50: it is the concentration needed to bring the measured effect to its halfway point. On to `O=C(Cn1nc(C(F)F)c2c1C(F)(F)[C@@H]1C[C@H]21)N[C@@H](Cc1cc(F)cc(F)c1)c1nc(-c2cccc(C(F)(F)F)n2)cc(=O)n1-c1ccc(Cl)c2c(NS(=O)(=O)C3CC3)nn(CC(F)F)c12` (atropisomer, axis not shown; (P)) [Example 44, N-((S)-1-((1P)-1-(4-chloro-3-(cyclopropanesulfonamido)-1-(2,2-difluoroethyl)-1H-indazol-7-yl)-6-oxo-4-(6-(trifluoromethyl)pyridin-2-yl)-1,6-dihydropyrimidin-2-yl)-2-(3,5-difluorophenyl)ethyl)-2-((3bS,4aR)-3-(difluoromethyl)-5,5-difluoro-3b,4,4a,5-tetrahydro-1H-cyclopropa[3,4]cyclopenta[1,2-c]pyrazol-1-yl)acetamide], for which the CC50 at 4 days in series [1] was greater than 100 nM. Besides, in series [2], the EC50 came out at 0.24 nM.

As for `COC(C)(C)C#Cc1cc(=O)n(-c2ccc(Cl)c3c(NS(=O)(=O)C4CC4)nn(CC(F)F)c23)c([C@H](Cc2cc(F)cc(F)c2)NC(=O)Cn2nc(C(F)(F)F)c3c2C(F)(F)[C@@H]2C[C@H]32)n1` (atropisomer, axis not shown; (P)) [Example 45, N-((S)-1-((1P)-1-(4-chloro-3-(cyclopropanesulfonamido)-1-(2,2-difluoroethyl)-1H-indazol-7-yl)-4-(3-methoxy-3-methylbut-1-yn-1-yl)-6-oxo-1,6-dihydropyrimidin-2-yl)-2-(3,5-difluorophenyl)ethyl)-2-((3bS,4aR)-5,5-difluoro-3-(trifluoromethyl)-3b,4,4a,5-tetrahydro-1H-cyclopropa[3,4]cyclopenta[1,2-c]pyrazol-1-yl)acetamide], the CC50 at 4 days in series [1] was greater than 100 nM. In addition, the EC50 in series [2] turned out to be 0.12 nM.

In series [1], `CC(C)(C#Cc1cc(=O)n(-c2ccc(Cl)c3c(NS(=O)(=O)C4CC4)nn(CC(F)F)c23)c([C@H](Cc2cc(F)cc(F)c2)NC(=O)Cn2nc(C(F)F)c3c2C(F)(F)[C@@H]2C[C@H]32)n1)S(C)(=O)=O` (atropisomer, axis not shown; (P)) [Example 47, N-((S)-1-((1P)-1-(4-chloro-3-(cyclopropanesulfonamido)-1-(2,2-difluoroethyl)-1H-indazol-7-yl)-4-(3-methyl-3-(methylsulfonyl)but-1-yn-1-yl)-6-oxo-1,6-dihydropyrimidin-2-yl)-2-(3,5-difluorophenyl)ethyl)-2-((3bS,4aR)-3-(difluoromethyl)-5,5-difluoro-3b,4,4a,5-tetrahydro-1H-cyclopropa[3,4]cyclopenta[1,2-c]pyrazol-1-yl)acetamide] registered a 50% cytotoxic concentration (CC50) at 4 days greater than 100 nM. In series [2], the 50% effective concentration (EC50) is 0.047 nM.

As to `CCOc1ncc(-c2cc(=O)n(-c3ccc(Cl)c4c(NS(=O)(=O)C5CC5)nn(CC(F)F)c34)c([C@H](Cc3cc(F)cc(F)c3)NC(=O)Cn3nc(C(F)F)c4c3C(F)(F)[C@@H]3C[C@H]43)n2)cn1` (atropisomer, axis not shown; (P)) [Example 49, N-((S)-1-((1P)-1-(4-chloro-3-(cyclopropanesulfonamido)-1-(2,2-difluoroethyl)-1H-indazol-7-yl)-2′-ethoxy-6-oxo-1,6-dihydro-[4,5′-bipyrimidin]-2-yl)-2-(3,5-difluorophenyl)ethyl)-2-((3bS,4aR)-3-(difluoromethyl)-5,5-difluoro-3b,4,4a,5-tetrahydro-1H-cyclopropa[3,4]cyclopenta[1,2-c]pyrazol-1-yl)acetamide], the CC50 at 4 days in series [1] is greater than 100 nM. For the same molecule, in series [2], the EC50 amounted to 0.58 nM.

Consider `O=C(Cn1nc(C(F)F)c2c1C(F)(F)[C@@H]1C[C@H]21)N[C@@H](Cc1cc(F)cc(F)c1)c1nc(-c2cnccn2)cc(=O)n1-c1ccc(Cl)c2c(NS(=O)(=O)C3CC3)nn(CC(F)F)c12` (atropisomer, axis not shown; (P)) [Example 50, N-((S)-1-((1P)-1-(4-chloro-3-(cyclopropanesulfonamido)-1-(2,2-difluoroethyl)-1H-indazol-7-yl)-6-oxo-4-(pyrazin-2-yl)-1,6-dihydropyrimidin-2-yl)-2-(3,5-difluorophenyl)ethyl)-2-((3bS,4aR)-3-(difluoromethyl)-5,5-difluoro-3b,4,4a,5-tetrahydro-1H-cyclopropa[3,4]cyclopenta[1,2-c]pyrazol-1-yl)acetamide], for which the CC50 at 4 days in series [1] is greater than 100 nM. The EC50 in series [2] was 0.81 nM.

On to `Cn1nc(NS(C)(=O)=O)c2c(Cl)ccc(-n3c([C@H](Cc4cc(F)cc(F)c4)NC(=O)Cn4nc(C(F)F)c5c4C(F)(F)[C@@H]4C[C@H]54)nc(-c4ccccc4)cc3=O)c21` (atropisomer, axis not shown; (aR)) [Example 1, N-((S)-1-(1-(4-chloro-1-methyl-3-(methylsulfonamido)-1H-indazol-7-yl)-6-oxo-4-phenyl-1,6-dihydropyrimidin-2-yl)-2-(3,5-difluorophenyl)ethyl)-2-((3bS,4aR)-3-(difluoromethyl)-5,5-difluoro-3b,4,4a,5-tetrahydro-1H-cyclopropa[3,4]cyclopenta[1,2-c]pyrazol-1-yl)acetamide], for which the cytotoxic concentration (CC50) at 4 days in series [1] was greater than 500 nM. For the same molecule, the EC50 in series [2] came out at 0.72 nM.

`Cn1nc(NS(C)(=O)=O)c2c(Cl)ccc(-n3c([C@@H](Cc4cc(F)cc(F)c4)NC(=O)Cn4nc(C(F)F)c5c4C(F)(F)[C@@H]4C[C@H]54)nc(-c4ccccc4)cc3=O)c21` (atropisomer, axis not shown; (aR)) [Example 2, N-((R)-1-(1-(4-chloro-1-methyl-3-(methylsulfonamido)-1H-indazol-7-yl)-6-oxo-4-phenyl-1,6-dihydropyrimidin-2-yl)-2-(3,5-difluorophenyl)ethyl)-2-((3bS,4aR)-3-(difluoromethyl)-5,5-difluoro-3b,4,4a,5-tetrahydro-1H-cyclopropa[3,4]cyclopenta[1,2-c]pyrazol-1-yl)acetamide] showed a CC50 at 4 days in series [1] greater than 500 nM. The EC50 in series [2] came to 190 nM.

`Cc1cc(C)nc(-c2cc(=O)n(-c3ccc(Cl)c4c(NS(C)(=O)=O)nn(C)c34)c([C@H](Cc3cc(F)cc(F)c3)NC(=O)Cn3nc(C(F)F)c4c3C(F)(F)[C@@H]3C[C@H]43)n2)n1` (atropisomer, axis not shown; (aR)) [Example 4, N-((S)-1-((1′P)-1′-(4-chloro-1-methyl-3-(methylsulfonamido)-1H-indazol-7-yl)-4,6-dimethyl-6′-oxo-1′,6′-dihydro-[2,4′-bipyrimidin]-2′-yl)-2-(3,5-difluorophenyl)ethyl)-2-((3bS,4aR)-3-(difluoromethyl)-5,5-difluoro-3b,4,4a,5-tetrahydro-1H-cyclopropa[3,4]cyclopenta[1,2-c]pyrazol-1-yl)acetamide] registered a CC50 at 4 days in series [1] greater than 100 nM. For the same molecule, the concentration for a half-maximal effect (EC50) in series [2] worked out at 0.044 nM.

Molecule `Cn1nc(NS(C)(=O)=O)c2c(Cl)ccc(-n3c([C@H](Cc4cc(F)cc(F)c4)NC(=O)Cn4nc(C(F)F)c5c4C(F)(F)[C@@H]4C[C@H]54)nc(-c4nccc(C(F)F)n4)cc3=O)c21` (atropisomer, axis not shown; (aR)) [Example 5, N-((S)-1-((1′P)-1′-(4-chloro-1-methyl-3-(methylsulfonamido)-1H-indazol-7-yl)-4-(difluoromethyl)-6′-oxo-1′,6′-dihydro-[2,4′-bipyrimidin]-2′-yl)-2-(3,5-difluorophenyl)ethyl)-2-((3bS,4aR)-3-(difluoromethyl)-5,5-difluoro-3b,4,4a,5-tetrahydro-1H-cyclopropa[3,4]cyclopenta[1,2-c]pyrazol-1-yl)acetamide] had a CC50 at 4 days in series [1] greater than 100 nM. For the same molecule, the half-maximal effective concentration (EC50) in series [2] came to 0.054 nM.

As for `Cn1nc(NS(C)(=O)=O)c2c(Cl)ccc(-n3c([C@H](Cc4cc(F)cc(F)c4)NC(=O)Cn4nc(C(F)F)c5c4C(F)(F)[C@@H]4C[C@H]54)nc(-c4nccc(C(F)(F)F)n4)cc3=O)c21` (atropisomer, axis not shown; (aR)) [Example 6, N-((S)-1-((1′P)-1′-(4-chloro-1-methyl-3-(methylsulfonamido)-1H-indazol-7-yl)-6′-oxo-4-(trifluoromethyl)-1′,6′-dihydro-[2,4′-bipyrimidin]-2′-yl)-2-(3,5-difluorophenyl)ethyl)-2-((3bS,4aR)-3-(difluoromethyl)-5,5-difluoro-3b,4,4a,5-tetrahydro-1H-cyclopropa[3,4]cyclopenta[1,2-c]pyrazol-1-yl)acetamide], the CC50 at 4 days in series [1] is greater than 100 nM. Besides, the EC50 in series [2] is 0.054 nM.

In series [1], `CCc1cnc(-c2cc(=O)n(-c3ccc(Cl)c4c(NS(C)(=O)=O)nn(C)c34)c([C@H](Cc3cc(F)cc(F)c3)NC(=O)Cn3nc(C(F)F)c4c3C(F)(F)[C@@H]3C[C@H]43)n2)nc1` (atropisomer, axis not shown; (aR)) [Example 12, N-((S)-1-((1′P)-1′-(4-chloro-1-methyl-3-(methylsulfonamido)-1H-indazol-7-yl)-5-ethyl-6′-oxo-1′,6′-dihydro-[2,4′-bipyrimidin]-2′-yl)-2-(3,5-difluorophenyl)ethyl)-2-((3bS,4aR)-3-(difluoromethyl)-5,5-difluoro-3b,4,4a,5-tetrahydro-1H-cyclopropa[3,4]cyclopenta[1,2-c]pyrazol-1-yl)acetamide] gave a CC50 at 4 days greater than 100 nM. In series [2], the EC50 came to 0.019 nM.

Regarding `CCOc1cnc(-c2cc(=O)n(-c3ccc(Cl)c4c(NS(C)(=O)=O)nn(C)c34)c([C@H](Cc3cc(F)cc(F)c3)NC(=O)Cn3nc(C(F)F)c4c3C(F)(F)[C@@H]3C[C@H]43)n2)nc1` (atropisomer, axis not shown; (aR)) [Example 14, N-((S)-1-((1′P)-1′-(4-chloro-1-methyl-3-(methylsulfonamido)-1H-indazol-7-yl)-5-ethoxy-6′-oxo-1′,6′-dihydro-[2,4′-bipyrimidin]-2′-yl)-2-(3,5-difluorophenyl)ethyl)-2-((3bS,4aR)-3-(difluoromethyl)-5,5-difluoro-3b,4,4a,5-tetrahydro-1H-cyclopropa[3,4]cyclopenta[1,2-c]pyrazol-1-yl)acetamide], the CC50 at 4 days in series [1] was greater than 100 nM. Also, in series [2], the EC50 came out at 0.042 nM.
